Test results as given in the NIST ThermoML archive (doi:10.1016/j.jct.2014.07.026).

Experiment: mn = molality of the nth substance listed, in mol/kg
Conditions: 100 kPa, Liquid; for mass density: Vibrating tube method; for speed of sound: Frequency=2 MHz, Linear variable-path acoustic interferometer

CC(C)[C@H](N)C(=O)[O-].CCCCn1cc[n+](C)c1 [1-butyl-3-methylimidazolium L-valinate] + O
Conditions | mass density [kg/m3] | speed of sound [m/s]
293.15 K, m1 = 0.03333 | 999.132 | –
293.15 K, m1 = 0.05233 | 999.647 | –
293.15 K, m1 = 0.07111 | 1000.15 | –
293.15 K, m1 = 0.08607 | 1000.55 | –
293.15 K, m1 = 0.1001 | 1000.93 | –
293.15 K, m1 = 0.138 | 1001.93 | –
293.15 K, m1 = 0.1804 | 1003.02 | –
293.15 K, m1 = 0.2187 | 1004 | –
293.15 K, m1 = 0.2653 | 1005.21 | –
293.15 K, m1 = 0.3295 | 1006.77 | –
293.15 K, m1 = 0.3595 | 1007.51 | –
293.15 K, m1 = 0.4046 | 1008.61 | –
293.15 K, m1 = 0.4561 | 1009.85 | –
298.15 K, m1 = 0.03333 | 997.952 | –
298.15 K, m1 = 0.05233 | 998.454 | –
298.15 K, m1 = 0.06361 | – | 1509.7
298.15 K, m1 = 0.07111 | 998.947 | –
298.15 K, m1 = 0.08607 | 999.329 | –
298.15 K, m1 = 0.1001 | 999.708 | –
298.15 K, m1 = 0.1178 | – | 1519.6
298.15 K, m1 = 0.138 | 1000.66 | –
298.15 K, m1 = 0.1494 | – | 1525.3
298.15 K, m1 = 0.1804 | 1001.72 | –
298.15 K, m1 = 0.2009 | – | 1534.4
298.15 K, m1 = 0.2187 | 1002.66 | –
298.15 K, m1 = 0.2467 | – | 1542.1
298.15 K, m1 = 0.2653 | 1003.87 | –
298.15 K, m1 = 0.2965 | – | 1550.5
298.15 K, m1 = 0.3295 | 1005.34 | –
298.15 K, m1 = 0.3434 | – | 1558.2
298.15 K, m1 = 0.3595 | 1006.08 | –
298.15 K, m1 = 0.4046 | 1007.11 | –
298.15 K, m1 = 0.4049 | – | 1568.3
298.15 K, m1 = 0.4496 | – | 1575.2
298.15 K, m1 = 0.4561 | 1008.32 | –
298.15 K, m1 = 0.513 | – | 1584.9
298.15 K, m1 = 0.5714 | – | 1593.8
303.15 K, m1 = 0.03333 | 996.535 | –
303.15 K, m1 = 0.05233 | 997.021 | –
303.15 K, m1 = 0.07111 | 997.503 | –
303.15 K, m1 = 0.08607 | 997.878 | –
303.15 K, m1 = 0.1001 | 998.242 | –
303.15 K, m1 = 0.138 | 999.178 | –
303.15 K, m1 = 0.1804 | 1000.22 | –
303.15 K, m1 = 0.2187 | 1001.13 | –
303.15 K, m1 = 0.2653 | 1002.26 | –
303.15 K, m1 = 0.3295 | 1003.73 | –
303.15 K, m1 = 0.3595 | 1004.44 | –
303.15 K, m1 = 0.4046 | 1005.44 | –
303.15 K, m1 = 0.4561 | 1006.67 | –
308.15 K, m1 = 0.03234 | 994.871 | –
308.15 K, m1 = 0.05133 | 995.354 | –
308.15 K, m1 = 0.06493 | 995.698 | –
308.15 K, m1 = 0.08884 | 996.286 | –
308.15 K, m1 = 0.1058 | 996.698 | –
308.15 K, m1 = 0.1347 | 997.389 | –
308.15 K, m1 = 0.181 | 998.492 | –
308.15 K, m1 = 0.2182 | 999.371 | –
308.15 K, m1 = 0.2583 | 1000.3 | –
308.15 K, m1 = 0.3177 | 1001.66 | –
308.15 K, m1 = 0.3591 | 1002.6 | –
308.15 K, m1 = 0.4041 | 1003.61 | –
308.15 K, m1 = 0.4561 | 1004.69 | –
313.15 K, m1 = 0.03234 | 993.036 | –
313.15 K, m1 = 0.05133 | 993.509 | –
313.15 K, m1 = 0.06493 | 993.842 | –
313.15 K, m1 = 0.08884 | 994.427 | –
313.15 K, m1 = 0.1058 | 994.828 | –
313.15 K, m1 = 0.1347 | 995.499 | –
313.15 K, m1 = 0.181 | 996.579 | –
313.15 K, m1 = 0.2182 | 997.425 | –
313.15 K, m1 = 0.2583 | 998.325 | –
313.15 K, m1 = 0.3177 | 999.623 | –
313.15 K, m1 = 0.3591 | 1000.51 | –
313.15 K, m1 = 0.4041 | 1001.5 | –
313.15 K, m1 = 0.4561 | 1002.64 | –
